Experimental data taken from patent US4015974A, “Amido phosphorothiolates” (priority 1972, dated 1977).
Converted amounts (≈) assume the structure as drawn. Read-outs that look alike come from different tables or passages of the source.

What was measured:
Type in all cases: in vivo
[1] = test system: rice stem borer (Chilo suppressalis); assay: Lethal effect on rice stem borer (Table 6); settings: 50 % emulsifiable concentrate, 1000 fold dilute solution, 4 days after application
Excerpt: Eggs just before hatch of the rice stem borer were applied in a ratio of 100/pot near the root of rice plants grown up into the tillering stage in an […] Wagner's pot. After eggs were hatched and the larvae entered into stems of rice plants, an 1000 fold dilute solution of each 50 % emulsifiable concentrates of the present compounds was applied by means of a turn table.

[2] = test system: carmine mite (Tetranychus telavius); assay: Lethal effect on carmine mite, leaf dipping (Table 3); settings: foliar
Procedure: A large number of carmine mite adult were made parasitic on leaves of potted kidney beans at a 2-leaves stage which had elapsed 10 days after sowing. The leaves of kidney bean on which carmine mites had been made parasitic were dipped for 1 minute in each aqueous solution of the present compounds of wettable powder type. Water was given to the leaves not to kill them, and after 48 hours the death and alive were observed microscopically to calculate the mortality. Values of LC50 were obtained from the mortality.

[3] = test system: radish; assay: Pre-emergence application, herbicidal effect on radish (Table 1); set-up: key: 0: not damaged; 5: completely killed; settings: 20 days after application, score 0-5
In short: (§1)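 Soil treatment after sowing, pre-emergence; wettable powder formulations diluted with water. Greenhouse, 20 d. Score 0 = no damage, 5 = complete kill.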

[4] = test system: nematode; assay: Effect on nematode (Table 7); set-up: tested at 500 ppm; settings: 500 p.p.m., 24 hours
Procedure: 0.5 ml. of a nematode-containing aqueous solution separated from food according to Baermann's method was placed in a test tube with ground stopper containing 0.5 ml. of an aqueous dilute solution of each emulsifiable concentrates of the present compounds. The concentration of the active ingredient in the mixture was adjusted to 500 p.p.m. After 24 hours, the death and alive were observed microscopically to calculate the mortality.

[5] = test system: barnyard grass (Echinochloa crus-galli); assay: Water application, herbicidal effect on barnyard grass (Table 2); set-up: key: 0: not damaged; 5: completely killed; settings: 25 days, score 0-5
In short: (§2)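 Paddy-soil pots flooded to paddy conditions; rice transplanted at 3-leaf stage, barnyard grass sown, broad-leaved weeds germinating spontaneously. Test compounds applied as wettable powder to soil under flooded water. Herbicidal effect and rice phytotoxicity scored 0–5 at 25 days after application.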

[6] = test system: barnyard grass (Echinochloa crus-galli); assay: Pre-emergence application, herbicidal effect on barnyard grass (Table 1); set-up: key: 0: not damaged; 5: completely killed; settings: 20 days after application, score 0-5
In short: as §1

[7] = test system: common purslane (Portulaca oleracea); assay: Pre-emergence application, herbicidal effect on common purslane (Table 1); set-up: key: 0: not damaged; 5: completely killed; settings: 20 days after application, score 0-5
In short: as §1

[8] = test system: common lambsquarter (Chenopodium album); assay: Pre-emergence application, herbicidal effect on common lambsquarter (Table 1); set-up: key: 0: not damaged; 5: completely killed; settings: 20 days after application, score 0-5
In short: as §1

[9] = test system: redroot pigweed (Amaranthus retroflexus); assay: Pre-emergence application, herbicidal effect on redroot pigweed (Table 1); set-up: key: 0: not damaged; 5: completely killed; settings: 20 days after application, score 0-5
In short: as §1

[10] = test system: broad-leaved weeds, e.g., monochoria, false pimpernel and toothcup; assay: Water application, herbicidal effect on broad-leaved weeds (Table 2); set-up: key: 0: not damaged; 5: completely killed; settings: 25 days, score 0-5
In short: as §2

[11] = test system: rice; assay: Water application, phytotoxicity on rice (Table 2); set-up: key: 0: no effect; 1: very slightly affected; 2: slightly affected; 3: moderately affected; 4: considerably affected; 5: completely killed; settings: 25 days, score 0-5
In short: as §2

[12] = test system: large crabgrass (Digitaria sanguinalis); assay: Pre-emergence application, herbicidal effect on large crabgrass (Table 1); set-up: key: 0: not damaged; 5: completely killed; settings: 20 days after application, score 0-5
In short: as §1

| SMILES | Mortality [1] [%] | Herbicidal effect, radish ([3]; 10 g./a.) | Herbicidal effect, radish ([3]; 20 g./a.) | Herbicidal effect, radish ([3]; 40 g./a.) | Herbicidal effects, barnyard grass ([5]; 10 g/a) | Herbicidal effects, barnyard grass ([5]; 20 g/a) | Herbicidal effects, barnyard grass ([5]; 40 g/a) | Herbicidal effect, barnyard grass ([6]; 10 g./a.) | Herbicidal effect, barnyard grass ([6]; 20 g./a.) | Herbicidal effect, barnyard grass ([6]; 40 g./a.) | Herbicidal effect, common purslane ([7]; 10 g./a.) | Herbicidal effect, common purslane ([7]; 20 g./a.) | Herbicidal effect, common purslane ([7]; 40 g./a.) | Herbicidal effect, common lambsquarter ([8]; 10 g./a.) | Herbicidal effect, common lambsquarter ([8]; 20 g./a.) | Herbicidal effect, common lambsquarter ([8]; 40 g./a.) | Herbicidal effect, redroot pigweed ([9]; 10 g./a.) | Herbicidal effect, redroot pigweed ([9]; 20 g./a.) | Herbicidal effect, redroot pigweed ([9]; 40 g./a.) | Herbicidal effects, broad-leaved weeds ([10]; 10 g/a) | further results |
| --- | --- | --- | --- | --- | --- | --- | --- | --- | --- | --- | --- | --- | --- | --- | --- | --- | --- | --- | --- | --- | --- |
| CCOC(=O)CC(SP(=S)(OC)OC)C(=O)OCC (stereo not drawn) [Malathion, reference compound] | 41.3 |  |  |  |  |  |  |  |  |  |  |  |  |  |  |  |  |  |  |  |  |
| CCOP(=O)(SCC(=O)N1CCCCC1C)SCc1ccccc1 (stereo not drawn) [Compound 11] |  | 0 | 0 | 0 | 5 | 5 | 5 | 4 | 5 | 5 | 4 | 4 | 5 | 4 | 4 | 5 | 4 | 5 | 5 | 5 | LC50 ([2]; 48 h): 50 µg/mL (≈ 129 µM); Mortality [4]: 100%; Herbicidal effects, broad-leaved weeds ([10]; 20 g/a): 5; Herbicidal effects, broad-leaved weeds ([10]; 40 g/a): 5; Phytotoxicity on rice ([11]; 10 g/a): 0; Phytotoxicity on rice ([11]; 20 g/a): 0; Phytotoxicity on rice ([11]; 40 g/a): 0; Herbicidal effect, large crabgrass ([12]; 10 g./a.): 4; Herbicidal effect, large crabgrass ([12]; 20 g./a.): 5; Herbicidal effect, large crabgrass ([12]; 40 g./a.): 5 |
| C=C(C)CSP(=O)(OCC)SCC(=O)N1CCCCC1C (stereo not drawn) [Compound 35] | 95.0 |  |  |  |  |  |  |  |  |  |  |  |  |  |  |  |  |  |  |  |  |
| CCOP(=O)(SCC(=O)N1CCCCC1C)SCC(C)C (stereo not drawn) [Compound 6] | 75.0 |  |  |  |  |  |  |  |  |  |  |  |  |  |  |  |  |  |  |  |  |
| CC(COc1ccc(C(C)(C)C)cc1)OCC(C)OS(=O)OCCl (stereo not drawn) [Smite, reference compound] |  |  |  |  |  |  |  |  |  |  |  |  |  |  |  |  |  |  |  |  | LC50 ([2]; leaves dipped 1 minute, wettable powder, 48 hours, read-out: LC50): 102 µg/mL (≈ 269 µM) |
| CCCCSP(=O)(OC)SCC(=O)N1CCCCC1C (stereo not drawn) [Compound 31] | 69.5 |  |  |  |  |  |  |  |  |  |  |  |  |  |  |  |  |  |  |  |  |
| CCOP(=O)(SCCC(C)C)SCC(=O)N1CCCCC1C (stereo not drawn) [Compound 7] |  | 0 | 0 | 0 | 5 | 5 | 5 | 5 | 5 | 5 | 5 | 5 | 5 | 5 | 5 | 5 | 4 | 5 | 5 | 5 | LC50 ([2]; 48 h): 18.5 µg/mL (≈ 50.3 µM); Mortality [4]: 100%; Herbicidal effects, broad-leaved weeds ([10]; 20 g/a): 5; Herbicidal effects, broad-leaved weeds ([10]; 40 g/a): 5; Phytotoxicity on rice ([11]; 10 g/a): 0; Phytotoxicity on rice ([11]; 20 g/a): 0; Phytotoxicity on rice ([11]; 40 g/a): 0; Herbicidal effect, large crabgrass ([12]; 10 g./a.): 5; Herbicidal effect, large crabgrass ([12]; 20 g./a.): 5; Herbicidal effect, large crabgrass ([12]; 40 g./a.): 5 |
| CCCSP(=O)(OCC)SCC(=O)N1CCCCC1CC (stereo not drawn) [Compound 14] |  | 0 | 0 | 0 | 5 | 5 | 5 | 5 | 5 | 5 | 5 | 5 | 5 | 4 | 5 | 5 | 4 | 5 | 5 | 5 | LC50 ([2]; 48 h): 23.1 µg/mL (≈ 65.3 µM); Mortality [4]: 100%; Herbicidal effects, broad-leaved weeds ([10]; 20 g/a): 5; Herbicidal effects, broad-leaved weeds ([10]; 40 g/a): 5; Phytotoxicity on rice ([11]; 10 g/a): 0; Phytotoxicity on rice ([11]; 20 g/a): 0; Phytotoxicity on rice ([11]; 40 g/a): 0; Herbicidal effect, large crabgrass ([12]; 10 g./a.): 5; Herbicidal effect, large crabgrass ([12]; 20 g./a.): 5; Herbicidal effect, large crabgrass ([12]; 40 g./a.): 5 |
| C=CCSP(=O)(OCCC)SCC(=O)N1CCC(C)CC1 (stereo not drawn) [Compound 18] | 76.4 | 0 | 0 | 0 | 5 | 5 | 5 | 4 | 5 | 5 | 4 | 4 | 5 | 4 | 5 | 5 | 4 | 4 | 5 | 5 | Herbicidal effects, broad-leaved weeds ([10]; 20 g/a): 5; Herbicidal effects, broad-leaved weeds ([10]; 40 g/a): 5; Phytotoxicity on rice ([11]; 10 g/a): 0; Phytotoxicity on rice ([11]; 20 g/a): 0; Phytotoxicity on rice ([11]; 40 g/a): 0; Herbicidal effect, large crabgrass ([12]; 10 g./a.): 5; Herbicidal effect, large crabgrass ([12]; 20 g./a.): 5; Herbicidal effect, large crabgrass ([12]; 40 g./a.): 5 |
| CCCSP(=O)(OC)SCC(=O)N1CCCCC1C (stereo not drawn) [Compound 30] |  |  |  |  |  |  |  |  |  |  |  |  |  |  |  |  |  |  |  |  | LC50 ([2]; 48 h): 22.8 µg/mL (≈ 70.1 µM) |
| C=C(Cl)CSP(=O)(OCC)SCC(=O)N1CCCCC1C (stereo not drawn) [Compound 9] | 100 | 0 | 0 | 0 | 5 | 5 | 5 | 5 | 5 | 5 | 5 | 5 | 5 | 4 | 5 | 5 | 4 | 5 | 5 | 5 | Mortality [4]: 100%; Herbicidal effects, broad-leaved weeds ([10]; 20 g/a): 5; Herbicidal effects, broad-leaved weeds ([10]; 40 g/a): 5; Phytotoxicity on rice ([11]; 10 g/a): 0; Phytotoxicity on rice ([11]; 20 g/a): 0; Phytotoxicity on rice ([11]; 40 g/a): 0; Herbicidal effect, large crabgrass ([12]; 10 g./a.): 5; Herbicidal effect, large crabgrass ([12]; 20 g./a.): 5; Herbicidal effect, large crabgrass ([12]; 40 g./a.): 5 |
